The test system of one experiment is 22Rv1 cell line. The experiment in a line: Flow cytometry of HLA-E / PD-L1 surface expression on 22Rv1. In kind it is cell-based. To be noted: for HLA-E surface expression, mean fluorescence intensity (MFI): 22Rv1, enza 15 μM, daro 20 μM, 48 h; for surface levels of HLA-E / surface levels of PD-L1: Example 2, 22Rv1. As to the method:
The effect of ARi on the NKG2A ligand, HLA-E, was investigated by flow cytometry on PCa cells treated with enza and daro.
PCa cells were plated at a density of 3×10^5 cells per well of a 6-well plate and adhered overnight. […] After treatment, cells were trypsinized, stained, and incubated (Cell Staining Buffer SouthernBiotech #0225-01S) with the corresponding antibody for 45-60 min at 4° C. Viability dye was added with each run. NK-92 cells and patient-derived cells were stained similarly. Markers used for experiments included: Thermofisher HLA-E Monoclonal Antibody (3D12HLA-E), Alexa Fluor™ 488, eBioscience™, CD274 (PD-L1, B7-H1) Monoclonal Antibody (MIH1), eFluor™ 450, eBioscience™, Cell Signaling PD-1 (D4W2J) XPR Rabbit mAb, SYTOX™ Orange Dead Cell Stain, for flow cytometry, BioLegend APC anti-human CD159a (NKG2A) Antibody #375108, BioLegend APC anti-human CD69 Antibody #310909, BioLegend Alexa Fluor® 647 anti-human CD137 (4-1BB) [4B4-1] #309823. For staining of the patient-derived PBMCs and subsequent NK cell characterization, the following antibodies were used: BioLegend Anti-Perforin Mouse Monoclonal Antibody (PerCP Cy5.50, clone: dG9) #308113, BioLegend Anti-Granzyme B Mouse Monoclonal Antibody (FITC, clone: GB11) #515403, BioLegend Anti-CD56 Mouse Monoclonal Antibody (Alexa Fluor® 700, clone: 5.1H1) #362521, and BioLegend (PE anti-human CD45 Antibody) #304008.
The effect of androgen pathway inhibitors in the expression of HLA-E, a negative and key negative modulator of NK cell function, was also performed using Flow Cytometry. PD-L1 expression levels were also measured. In advance, The NK cell immune checkpoint inhibitor monalizumab (targeting NKG2A and its ligand, HLA-E) was also combined with ARi.
Background: In flow cytometry, cells or beads pass a laser one at a time.

Experiment [1] relates to PC cell lines (LNCap, 22Rv1, DU145, PC3). In words: Co-cultures of PC cell lines with NK cells (1:1), immune-mediated PC killing. The settings on record: for immune-mediated PC killing effect: Example 2, PC with NK-92 cells and patient-derived NK cells, within 24 hrs. In kind it is cell-based. The method, then: Prostate cancer cell lines were dyed with the blue CMAC live-cell dye (Thermo Fisher Scientific #C2110, per manufacturer protocol). Blue-fluorescent cancer cells were plated at a density of 10,000 cells per well of a 48-well plate. NK-92 cells were dyed with green CMFDA (Cayman Chemical Company #19583, per manufacturer protocol). Green-fluorescent NK-92 cells were added to the blue-fluorescent cancer cells at a 1:1 ratio. Enzalutamide (10 μM), darolutamide (20 μM), and 1 μM ethidium homodimer (EthD-1) were added at the same time as the NK cells. After 24 hours of co-culture, images of live cancer cells, live NK cells, and dead cells were taken using a fluorescent microscope. The co-culture experiments were run with internal control conditions and as a single treatment. Normalization was performed after analysis to take baseline death conditions into each experiment run. To optimize the high output of these experiments, a subset of co-cultures were performed using the ImageXpress® Micro Confocal High-Content Imaging. This analysis maintained the experiment conditions, drug concentrations, and the dyeing process. When GFP-labeled tumor cells were used for culture assays, they were added in a 1:1 ratio. Cell adhered over 24 h, and when patient-derived NK cells were added, a control well was trypsinized, and cells resuspended and counted to adjust a 1:1 ratio before treatment addition. The experiments with blocking antibodies were performed using the ImageXpress system. TRAIL blocking ab was purchased from Santa Cruz TRAIL Antibody (RIK-2): sc-56246, and IFN gamma blocking Monoclonal Antibody (NIB42, #6-7318-81) was purchased from Thermo Fisher. The blocking mAb was added when NK cells were combined with tumor cells.
Live cancer cells, NK cells, and dead cells were quantified using FIJI (Fiji Is Just ImageJ) software for images derived from fluorescent co-culture images. Images from the ImageXpress system were quantified using MetaXpress cytoplasmic/nuclear staining software. The percent of dead tumor cells in each well was quantified, and this percentage was normalized by subtracting baseline death from cancer cell-only wells, NK cell-only wells, or both. A two-way ANOVA was used to calculate the interaction effect between drug treatment and NK cells.
In groups with a significant interaction effect, data was further normalized in the cancer cell+NK cells+drug treatment well by subtracting out death in the cancer cell+drug well. A one-way ANOVA and multiple comparison analysis with subsequent t-tests were used to calculate the statistical significance of the difference between this group and the cancer cell+NK cell well. GraphPad Prism Version 9.5.1 was used for statistical analysis.
We conducted cell viability assays to investigate the effect of Enza and Daro on PC cells (LNCap, 22Rv1 [ARv7 mutation], DU145, PC3 [AR-]) and NK-92 cells. We performed co-culture experiments with PC and NK cells in a 1:1 ratio and analyzed immune cell-mediated tumor cell killing (ImageXpress Confocal HT). Cytokine profiling (Luminex 200) of culture supernatants was performed following treatment with ARi−/+ and anti-IFN-γ antibodies. In vivo studies were performed in NCr Nude mice harboring subcutaneous PC tumors treated orally with Daro (50 mg/kg/bid) and Enza (30 mg/kg/bid) for 4 weeks.
We performed ATP-based (CellTiter-Glo) viability assays to investigate the effect of Enzalutamide and Darolutamide on PC cell lines (LNCap, 22Rv1 [ARv7 mutation], DU145, PC3 [AR-]) and NK-92 cells. We performed co-culture experiments with PC and NK cells at a 1:1 ratio throughout 4 h, 6 h, 12 h, 24 h, and 48 h periods. We analyzed immune cell-mediated tumor cell killing in the presence of Enza and Darolutamide (ImageXpress Confocal HT). Western Blotting was performed to evaluate different protein expression levels and their regulation related to sensitivity in mediating immune-mediated cell killing (apoptotic family). […]

[2] abbreviates: Example 1, PC + NK-92, within 24 hours.
Setting [3] is: Example 2, PC + NK-92, within 24 hours, blocking mAbs 10 ug/ml.

Turning to `CC(O)c1cc(C(=O)N[C@@H](C)Cn2ccc(-c3ccc(C#N)c(Cl)c3)n2)n[nH]1` (stereo partly drawn) [darolutamide], in the experiment on 22Rv1 cell line, the “HLA-E surface expression, mean fluorescence intensity (MFI)” value is listed as 30.5±2.69×10^3; the “surface levels of HLA-E” value is on record as “did not change significantly”; the “surface levels of PD-L1” value is listed as “did not change significantly”. Besides, the “immune-mediated PC killing” value in experiment [1] (setting [2]) was 41%. Besides, in experiment [1] (setting [3]), the “immune-mediated PC killing” value was determined as 36%. In experiment [1], the “immune-mediated PC killing effect” value was 36%.

As for `CNC(=O)c1ccc(N2C(=S)N(c3ccc(C#N)c(C(F)(F)F)c3)C(=O)C2(C)C)cc1F` [enzalutamide], in the experiment with 22Rv1 cell line, the “HLA-E surface expression, mean fluorescence intensity (MFI)” value is listed as 41.14+7.6×10^3; the “surface levels of HLA-E” value is listed as “did not change significantly”; the “surface levels of PD-L1” value is “did not change significantly”. Moreover, in experiment [1] (setting [2]), the “immune-mediated PC killing” value is given as 36%. Also, the “immune-mediated PC killing” value in experiment [1] (setting [3]) turned out to be 40%. In experiment [1], the “immune-mediated PC killing effect” value is 40%.
